Experimental data published in patent publication US8399426B2, “Method for treating breast cancer using adenine nucleotide translocator 2 (ANT2) siRNA or ANT2 shRNA” (Bioinfra Inc., priority 2006, dated 2013).

What was measured:
[1] = tested on: MDA-MB-231 cell line; experiment: Sensitivity to doxorubicin, CCK8 assay, MDA-MB-231; format: cell-based, human; conditions: MDA-MB-231, doxorubicin 10 μM to zero, 10 hrs, no ANT2 shRNA
Procedure: The MDA-MB-231 cell line which has a predominant proportion of progenitor cells (CD44+/CD24−) was treated with 10-fold serial dilutions of doxorubicin, a widely used anticancer agent starting from 10 μM to zero, followed by incubation (10 hrs). The assay was conducted in the same manner as in Example 6.

[2] = tested on: breast cancer cell line MCF7; experiment: Sensitivity to doxorubicin, CCK8 assay, MCF7; format: cell-based; conditions: MCF7 progenitor cells (CD44+/CD24−) vs mixed population
Procedure: The breast cancer cell line MCF7, which has a minor proportion of progenitor cells (CD44+/CD24−), was treated with various concentrations of doxorubicin, widely used for the treatment of breast cancer, after which apoptosis was quantitatively analyzed using a CCK8 assay.

[3] = tested on: MCF7 cells; experiment: Sensitivity to TRAIL, CCK8 assay, MCF7; format: cell-based
Procedure: (§1) As breast cancer cell lines in this experiment, MCF7 resistant to TRAIL, and MDA-MB-231 highly sensitive to TRAIL were employed. MCF7 and MDA-MB-231 were treated with TRAIL at various concentrations after which cell death was analyzed with a CCK8 reagent. The CCK8 assay is a cell viability assay. Specifically, 100 μL of a cell suspension was placed onto each well (1×10^4 cells/well). The cells were treated with 10-fold serial dilutions of TRAIL starting from 1 μg/mL to zero, followed by incubation for 12 hrs. After the addition of 10 μL of the CCK8 reagent, the cells were incubated for a proper time (4 hours) in a CO2 incubator and measured for absorbance at 450 nm to analyze cell death.
However, the introduction of ANT2 shRNA into MCF7 cells induced apoptosis (−25%). […] As for a negative control, it was PBS for TRAIL, and sc shRNA (scrambled shRNA) for ANT2 shRNA.
After being treated with TRAIL alone, ANT2 shRNA alone, and TRAIL and ANT2 shRNA in combination, MCF7 cells, resistant to TRAIL, were examined for apoptosis, and the results are shown in FIG. 24C.
Furthermore, treatment with the p53 inhibitor (pifithrin-alpha) suppressed the up-regulation of TRAIL-mediated apoptosis by ANT2 shRNA, which confirmed that the introduction of ANT2 shRNA induced the expression and activity of p53, leading to an increase in sensitivity to TRAIL. The cell death was quantified using a CCK8 assay, with the use of PBS as a negative control for the p53 inhibitor (FIG. 28).

[4] = tested on: DR4, DR5, DcR1 and DcR2; experiment: Expression of TRAIL receptors by Western blots, MCF7; format: cell-based; conditions: MCF7, pre-treatment with p53 inhibitor
Procedure: The breast cancer cell lines MCF7 and MDA-MB-231, which are different in sensitivity to TRAIL from each other, were analyzed for expression levels of the receptors DR4, DR5, DcR1, and DcR2, all binding to TRAIL, by Western blots.
Upon the introduction of ANT2 shRNA, expression patterns of TRAIL receptors were examined, and the results are given in FIG. 26B. […] In T47D and BT474 cell lines, which are known to have TRAIL resistance, the same effects as in MCF7 were observed. That is, the introduction of ANT2 shRNA increased the expression of DR4 and DR5, but decreased the expression of DcR1 and DcR2 (FIG. 26C).
In addition, an experiment was performed to reconfirm that the introduction of ANT2 shRNA induces the expression and activity of p53, thus up-regulating the TRAIL receptors DR4 and DR5.

[5] = tested on: breast cancer cells (MDA-MB-231); experiment: Direct apoptosis, PI and Annexin V staining, FACS; format: cell-based, human; conditions: 48 hours from transfection
Procedure: To investigate whether apoptosis could induced directly by ANT2 siRNA, the present inventors performed staining with propidium iodide (PI) and Annexin V.
Particularly, the cells were transfected respectively with ANT2 siRNA and scrambled siRNA, followed by culture for 24-48 hours. The cells were washed with PBS, to which PI and Annexin V were added. After reaction at room temperature for 15 minutes, […] was measured by FACS.

[6] = tested on: MDA-MB-231 cells; experiment: Sensitivity to TRAIL, CCK8 assay, MDA-MB-231; format: cell-based, human; conditions: MDA-MB-231, TRAIL at various concentrations, 12 hrs
Procedure: as §1

[7] = tested on: breast cancer cell lines T47D and BT474; experiment: Sensitivity to TRAIL, CCK8 assay, T47D and BT474; format: cell-based; conditions: T47D and BT474, TRAIL alone
Source text: The same results as MCF7 were detected from the breast cancer cell lines T47D and BT474, both known to be resistant to TRAIL (FIG. 25A). For this, a CCK8 assay was employed to quantify the apoptosis.

[8] = tested on: breast cancer cell lines T47D and BT474; experiment: Western blots of apoptosis-induced proteins (PARP, caspase-8/9/7, Bid, cytochrome C); format: cell-based; conditions: TRAIL alone
Source text: The increased sensitivity to TRAIL was reconfirmed to be attributed to the knockdown of ANT2 by shRNA. […] The empty vector pcDNA was introduced as a negative control for pcDNA-ANT2. When ANT2 shRNA increased sensitivity to TRAIL to induce apoptosis, the concurrent events of intracellular proteins (cleavage of PARP protein, cleavage of caspase-8/9/7, and truncation of Bid proteins) were detected by Western blots.
Because mitochondria play an important role in the regulation of apoptosis, cytochrome C, which is released from mitochondria to cytoplasm, was quantitatively monitored upon the ANT2 shRNA-triggered, TRAIL-mediated apoptosis. The mitochondrial protein COX IV was used as a loading control to guarantee the use of mitochondrial proteins in the same amount. No changes in the pattern of apoptosis-induced proteins were observed when TRAIL was used alone. […] These changes of intracellular protein patterns confirmed that ANT2 shRNA enhanced TRAIL-mediated apoptosis.

[9] = tested on: MCF7 tumor; experiment: In vivo tumor growth of MCF7 transplanted into nude mice; RT-PCR of TRAIL receptors in tumors; parameters: species or system Balb/c nude mice; conditions: TRAIL alone, 10 mg/kg intraperitoneally, three treatments over 45 days
Procedure: The breast cancer cell line MCF7 resistant to TRAIL was transplanted into immunedeficient Balb/c nude mice. When a tumor grew to a volume of 100 mm^3, they were treated with ANT2 shRNA and TRAIL. In this regard, TRAIL was intraperitoneally injected (10 mg/kg) while ANT2 shRNA was directly injected into the tumor (100 μg; supplemented 200 μl Lipofectamine™2000). At this time, Lipofectamine™2000 was used to deliver ANT2 shRNA into tumor cells. After three treatments over 45 days, the size of tumor was monitored. A same volume of PBS and sc shRNA was used as respective negative controls for TRAIL and […]. On 45th day, the animal models were subjected to euthanasia and the tumors were excised.

COc1cccc2c1C(=O)c1c(O)c3c(c(O)c1C2=O)C[C@@](O)(C(=O)CO)C[C@@H]3O[C@H]1C[C@H](N)[C@H](O)[C@H](C)O1 [doxorubicin]
sensitivity to doxorubicin [1]: neither progenitor cells (CD44+/CD24−) nor the non-progenitor cells were sensitive | sensitivity to doxorubicin [2]: less sensitive

Cc1ccc(C(=O)Cn2c3c(sc2=N)CCCC3)cc1 [pifithrin-alpha, reference compound]
up-regulation of TRAIL-mediated apoptosis by ANT2 shRNA ([3]; MCF7, treatment with p53 inhibitor, CCK8): suppressed | up-regulation of DR4 and DR5 by ANT2 shRNA [4]: suppressed

ANT2 siRNA-2: ANT2 siRNA for comparison, SEQ ID NO: 14, 5′-CUGACAUCAUGUACACAGG-3′ (listed as RNA, chemistry not given here)
apoptosis, comparison among ANT2 siRNA, ANT2 siRNA-2 and ANT2 siRNA-3 [5]: consistent

ANT2 siRNA-3: ANT2 siRNA for comparison, SEQ ID NO: 15, 5′-GAUUGCUCGUGAUGAAGGA-3′ (listed as RNA, chemistry not given here)
apoptosis, comparison among ANT2 siRNA, ANT2 siRNA-2 and ANT2 siRNA-3 [5]: consistent

B1: TRAIL: TRAIL/apo2 ligand, a member of tumor necrosis factor, can selectively kill cancer cells (protein, UniProt P50591 1-281, looked up)
Tumor necrosis factor ligand …: MAMMEVQGGPSLGQTCVLIVIFTVLLQSLCVAVTYVYFTNELKQMQDKYSKSGIACFLKEDDSYWDPNDEESMNSPCWQVKWQLRQLVRKMILRTSEETISTVQEKQQNISPLVRERGPQRVAAHITGTRGRSNTLSSPNSKNEKALGRKINSWESSRSGHSFLSNLHLRNGELVIHEKGFYYIYSQTYFRFQEEIKENTKNDKQMVQYIYKYTSYPDPILLMKSARNSCWSKDAEYGLYSIYQGGIFELKENDRIFVSVTNEHLIDMDHEASFFGAFLVG
apoptosis ([3]; MCF7, TRAIL 100 ng/mL): not induced to undergo apoptosis | TRAIL-mediated apoptosis ([3]; MCF7, TRAIL at various concentrations, 12 hrs): did not work | TRAIL-mediated apoptosis [6]: induced | response to TRAIL [7]: resistant | changes in the pattern of apoptosis-induced proteins [8]: No changes | tumor growth [9]: no significant influences
